Measurements: patent US20220016111A1, “Methods of Treating Inflammation” (The Walter and Eliza Hall Institute of Medical Research, priority 2018, published 2022)
Entries after “also recorded” stand apart in the source; their conditions may differ.

How the values were obtained:
[1] = in vivo, cited from earlier work
[2] = in-vivo; cited from earlier work
[3] = biological target: T1, EZH1 (Homo sapiens, UniProt Q92800); details: cited from earlier work
[4] = tested on: 30 other histone or DNA methyltransferases; details: cited from earlier work
[5] = tested on: H3K27 methylation; details: cited from earlier work
[6] = tested on: diffused large B-cell lymphomas cells carrying the Y641 mutations; details: cited from earlier work
[7] = tested on: wild type and mutant forms of EZH2; details: cited from earlier work
[8] = tested on: established allergic inflammation; test: Established OVA inflammation, single dose of GSK126; type: in vivo, C57BL/6 mice; details: single dose 150 mg/kg oral gavage on day 5, assessed 3 days later
Method: CD4+ and CD8+ T cells were first gated by CD11b−GR1−TCRβ+. Neutrophils were gated by CD11bHiGR1Hi. Eosinophils were gated by CD11b+CD11c−SiglecF+. Mean and SEM are shown. n=2 Alum-sensitized vehicle treated controls shown for comparative purposes. OVA-sensitized groups were statistically compared by Student's t test.
Mice were immunized with an intraperitoneal injection of 200 μL Alum/OVA containing 20 μg low-endotoxin ovalbumin (Worthington) and 2.25 mg aluminium hydroxide (Sigma) in sterile PBS on day 0 and day 7. Mice were then rested for a minimum of 2 weeks and then challenged daily for 4 days with nebulized 2% (w/v) ovalbumin (Sigma) in PBS for 15 min. The day after the final challenge (or at a time-point described in the text), mice were sacrificed and bronchoalveolar lavage (250 μL×2 with sterile PBS) was performed from which cellular infiltrate was analysed by flow cytometry and acellular BAL fluid was analysed by Bio-Plex Pro™ cytokine assay (Biorad). Lung tissue was then fixed by inserting 1 mL of 10% formalin via the trachea into the lungs leaving to set in situ for at least 30 min. […] Stained slides were imaged using an Aperio Digital Pathology Slide Scanner and quantitated by counting PAS positive epithelial cells and scoring leukocyte infiltration in H&E stained sections according to the scoring chart (FIG. 16). […]

[9] = biological target: T1, EZH1; details: cited from earlier work; remark: listed apart in the source
[10] = tested on: established allergic inflammation; test: Established OVA inflammation, three doses of GSK126; type: in vivo, C57BL/6 mice
Method: Data shown representative of n=5 OVA/Vehicle (Veh) and OVA/GSK groups, n=2 unchallenged controls (Con) shown for reference purposes. c) Quantification of b. Mean and SEM shown. Group sizes as in b. […] Scale bar represents 100 μm. f) Quantification of PAS^+ cells and Inflammation Score. Mean and SEM shown. Group sizes as in b. Statistical analysis by 1-way ANOVA with Holm-Sidak post-hoc.
(§1) Mice were immunized with an intraperitoneal injection of 200 μL Alum/OVA containing 20 μg low-endotoxin ovalbumin (Worthington) and 2.25 mg aluminium hydroxide (Sigma) in sterile PBS on day 0 and day 7. Mice were then rested for a minimum of 2 weeks and then challenged daily for 4 days with nebulized 2% (w/v) ovalbumin (Sigma) in PBS for 15 min. The day after the final challenge (or at a time-point described in the text), mice were sacrificed and bronchoalveolar lavage (250 μL×2 with sterile PBS) was performed from which cellular infiltrate was analysed by flow cytometry and acellular BAL fluid was analysed by Bio-Plex Pro™ cytokine assay (Biorad). Lung tissue was then fixed by inserting 1 mL of 10% formalin via the trachea into the lungs leaving to set in situ for at least 30 min. The mid-section of the left lobe was then excised and placed in liquid formalin for a further 24 h prior to paraffin embedding, sectioning and staining with Periodic acid-Schiff (PAS) and Haematoxylin and Eosin (H&E) stains. Stained slides were imaged using an Aperio Digital Pathology Slide Scanner and quantitated by counting PAS positive epithelial cells and scoring leukocyte infiltration in H&E stained sections according to the scoring chart (FIG. 16). Scores from at least five 20× magnification fields of each stain were averaged for each mouse.
The therapeutic regime was then extended to three doses (day 5, 8 and 10) after establishing inflammation by OVA challenge on days 1-4, and airway inflammation assessed on day 11 (FIG. 15a).

[11] = tested on: OVA-induced allergic inflammation; type: in vivo, C57BL/6 mice
Method: (§2) Mean and SEM is shown. […] Scale bar represents 100 μm. e) Quantification of histological analysis showing the frequency of PAS^+ cells and the Inflammation Score. Mean and SEM are shown for n=8 per group. […] Mean and SEM are shown for n=5 (Vehicle), n=4 (each GSK dose).
Mean and SEM as well as individual data points are shown. n=4 each group. Data was statistically tested by 1-way ANOVA with Dunnet's post-hoc test.
as §1
Lung function was assessed by the forced oscillation technique using a FlexiVent system with FX1 module (Scireq, Montreal, Canada). Mice were anaesthetized with ketamine (150 mg/kg) and xylazine (15 mg/kg) then cannulated by tracheostomy with ligation. Baseline respiratory mechanics were recorded, followed by aerosolized saline then increasing doses of methacholine (MCh) (0.1-30 mg/mL). Respiratory impedance (Zrs) was measured and partitioned into airway and parenchymal components through fitting to the Constant Phase Model from which Newtonian resistance (Rn; equivalent to airway resistance) was calculated.
Total IgE and OVA-specific IgE were measured by enzyme-linked immunosorbent assay (ELISA). Briefly, 96 well plates were coated with either Rat anti-mouse IgE (to measure total IgE; Southern Biotech clone #23G2, cat #1130-01) or OVA protein (for OVA-specific IgE) in PBS overnight. Samples were diluted (total IgE 1:50-1:200 and OVA-specific IgE 1:50-1:100 based on pilot assays), and incubated in duplicate, prior to incubation with GAM Fc-specific polyclonal anti-IgE-HRP and colorimetric detection using TMB substrate (Thermo Scientific #34028), measuring absorbance at 450 nm. Absorbance values were converted to total IgE levels by reference to a mouse IgE anti-DNP (clone SPE-7) standard curve (0.1 ng/mL-1 μg/mL) which was included on the same plate. OVA-specific IgE absorbance was expressed relative to a reference OVA-immunized WT mouse which was selected prior to measurement. All ELISAs were performed blinded to treatment and genotype.

[12] = tested on: 20 other methyltransferases; details: cited from earlier work
[13] = tested on: tumours; details: mouse models; cited from earlier work
[14] = tested on: activated C57BL/6 mouse CD4+ T cells; test: Survival/expansion of activated CD4+ T cells in vitro; type: cell-based; details: anti-CD3 and anti-CD28 activation, three days
Text: as §2
Nave CD4^+ T cells were isolated from a single-cell suspension from mouse spleen by MACS isolation kit (Miltenyi Biotech). Cells were labelled with CellTrace™ Violet (CTV, Thermo Fisher) then activated in 96 well plates pre-coated with anti-CD3 (10 μg/mL) and anti-CD28 (5 μg/mL) in RPMI-1640 medium supplemented with 10% heat-inactivated fetal bovine serum, 2 mM GlutaMAX™ and 0.05 mM β-mercaptoethanol.

[15] = tested on: MLL-rearranged leukemia; details: in-vitro and in vivo; cited from earlier work
[16] = 150 mg/kg on day 5, 8 and 10, assessed day 11
[17] = 75 mg/kg, compared with vehicle
[18] = 150 mg/kg oral gavage, each day of OVA challenge
[19] = after OVA challenge and GSK126 administration

T1 sequence (Q92800 whole entry, species assumed): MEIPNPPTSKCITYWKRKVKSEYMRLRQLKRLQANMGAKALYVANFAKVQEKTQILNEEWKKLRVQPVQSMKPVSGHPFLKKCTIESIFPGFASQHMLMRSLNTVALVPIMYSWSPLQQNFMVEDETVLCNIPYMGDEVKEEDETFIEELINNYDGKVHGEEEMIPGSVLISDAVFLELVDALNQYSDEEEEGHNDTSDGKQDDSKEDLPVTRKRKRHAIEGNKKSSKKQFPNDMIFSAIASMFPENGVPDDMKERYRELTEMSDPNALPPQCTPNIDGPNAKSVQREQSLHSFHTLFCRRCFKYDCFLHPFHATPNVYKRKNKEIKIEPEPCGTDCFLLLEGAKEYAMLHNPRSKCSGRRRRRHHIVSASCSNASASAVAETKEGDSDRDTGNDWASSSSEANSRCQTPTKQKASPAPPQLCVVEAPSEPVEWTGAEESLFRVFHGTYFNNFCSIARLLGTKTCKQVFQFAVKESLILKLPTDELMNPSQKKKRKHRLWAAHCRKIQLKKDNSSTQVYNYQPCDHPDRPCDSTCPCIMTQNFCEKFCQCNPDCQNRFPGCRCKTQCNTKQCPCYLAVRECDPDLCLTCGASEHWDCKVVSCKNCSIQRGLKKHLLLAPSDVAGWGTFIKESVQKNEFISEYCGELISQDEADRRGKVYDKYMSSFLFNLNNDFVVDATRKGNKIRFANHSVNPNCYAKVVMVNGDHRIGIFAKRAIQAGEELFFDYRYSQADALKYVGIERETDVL
T1 sequence (O75530 whole entry partner, species assumed): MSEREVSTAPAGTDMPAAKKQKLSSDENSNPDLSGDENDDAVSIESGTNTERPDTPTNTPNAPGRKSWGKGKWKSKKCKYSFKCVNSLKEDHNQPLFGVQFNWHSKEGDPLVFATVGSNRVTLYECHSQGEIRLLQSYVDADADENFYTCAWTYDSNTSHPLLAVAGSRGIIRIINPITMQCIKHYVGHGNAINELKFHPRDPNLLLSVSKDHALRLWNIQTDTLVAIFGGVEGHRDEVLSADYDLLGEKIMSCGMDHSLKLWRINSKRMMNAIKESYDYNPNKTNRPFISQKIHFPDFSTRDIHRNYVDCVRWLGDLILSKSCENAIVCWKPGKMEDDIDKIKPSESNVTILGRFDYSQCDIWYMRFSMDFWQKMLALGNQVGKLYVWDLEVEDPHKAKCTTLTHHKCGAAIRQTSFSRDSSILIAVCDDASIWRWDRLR
T1 sequence (Q15022 whole entry partner, species assumed): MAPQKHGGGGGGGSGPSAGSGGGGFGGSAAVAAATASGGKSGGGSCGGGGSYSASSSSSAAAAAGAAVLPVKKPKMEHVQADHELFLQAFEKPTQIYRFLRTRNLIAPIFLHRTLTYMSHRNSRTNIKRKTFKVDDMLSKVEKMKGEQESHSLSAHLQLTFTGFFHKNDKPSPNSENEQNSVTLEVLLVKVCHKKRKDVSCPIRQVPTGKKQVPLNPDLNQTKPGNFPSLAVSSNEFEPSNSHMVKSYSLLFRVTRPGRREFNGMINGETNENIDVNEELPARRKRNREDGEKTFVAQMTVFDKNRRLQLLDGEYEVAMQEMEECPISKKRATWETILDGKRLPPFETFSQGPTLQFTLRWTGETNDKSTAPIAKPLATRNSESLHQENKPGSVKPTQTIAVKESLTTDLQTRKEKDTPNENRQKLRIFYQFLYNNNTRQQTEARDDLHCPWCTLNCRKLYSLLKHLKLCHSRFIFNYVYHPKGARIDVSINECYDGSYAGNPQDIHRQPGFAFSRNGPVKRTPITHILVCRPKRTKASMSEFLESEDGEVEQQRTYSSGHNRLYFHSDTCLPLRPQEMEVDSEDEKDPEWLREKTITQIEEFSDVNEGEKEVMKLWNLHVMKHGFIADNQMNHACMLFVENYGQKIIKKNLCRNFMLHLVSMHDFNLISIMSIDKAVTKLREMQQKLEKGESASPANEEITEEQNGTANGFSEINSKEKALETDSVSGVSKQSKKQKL
T1 sequence (Q09028 whole entry partner, species assumed): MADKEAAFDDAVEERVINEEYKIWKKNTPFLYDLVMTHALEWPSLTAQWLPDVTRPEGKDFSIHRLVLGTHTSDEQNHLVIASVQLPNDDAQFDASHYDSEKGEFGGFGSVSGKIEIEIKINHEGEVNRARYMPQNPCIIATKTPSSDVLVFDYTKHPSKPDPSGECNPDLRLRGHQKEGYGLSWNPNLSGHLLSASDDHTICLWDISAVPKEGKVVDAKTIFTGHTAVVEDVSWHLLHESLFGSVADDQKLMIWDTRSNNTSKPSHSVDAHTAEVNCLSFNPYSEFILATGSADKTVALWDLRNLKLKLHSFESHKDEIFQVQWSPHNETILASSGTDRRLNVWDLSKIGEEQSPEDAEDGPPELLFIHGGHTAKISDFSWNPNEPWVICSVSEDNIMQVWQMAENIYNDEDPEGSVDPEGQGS

Compound: CCS(=O)(=O)N1CCC([C@@H](C)n2c(C)c(C(=O)NCc3c(OC)cc(C)[nH]c3=O)c3ccccc32)CC1 [CPI-169]
- oral bioavailability [1]: limited oral bioavailability
- antitumor activity and PD target engagement [2]: demonstrated antitumor activity and PD target engagement

Compound: COc1cc(C)[nH]c(=O)c1CNC(=O)c1c(C)n([C@H](C)C2CCN(CC(F)(F)F)CC2)c2ccccc12 [CPI-1205]
- selectivity for EZH2 over EZH1 [3]: modest selectivity
- selectivity against 30 other histone or DNA methyltransferases [4]: selectivity
- oral bioavailability [1]: orally bioavailable

Compound: CCC(CC)n1ccc2c(C(=O)NCc3c(C)cc(C)[nH]c3=O)cc(C#N)cc21 [EI1]
- H3K27 methylation and PRC2 target genes in treated cells [5]: genome-wide loss of H3K27 methylation and activation of PRC2 target genes
- effect on lymphoma cells [6]: decreased proliferation, cell cycle arrest, and apoptosis

Compound: Cc1cc(C)c(CNC(=O)c2cc(-c3ccc(CN4CCOCC4)cc3)cc3c2cnn3C2CCCC2)c(=O)[nH]1 [EPZ 005687]
- pharmacokinetic properties [1]: suboptimal
- affinity and selectivity for EZH2 [7]: high affinity and selectivity

Compound: CC[C@H](C)n1cc(C)c2c(C(=O)NCc3c(C)cc(C)[nH]c3=O)cc(-c3ccc(N4CCNCC4)nc3)cc21 [GSK126]
- BAL granulocyte numbers [8]: did not alter
- BAL CD4+ T cell numbers ([8]; 150 mg/kg): reduced; also recorded: selectively reduces
- increased potency compared to EZH1 [9]: 150 fold
- BAL B cells [10, 16]: significantly reduced
- BAL CD4+ T cells [10, 16]: significantly reduced
- BAL eosinophils [10, 16]: significantly reduced
- PAS+ mucous-producing cells [10, 16]: reduced
- airway inflammation [10, 16]: reduced
- total BAL cells [10, 16]: significantly reduced
- lung inflammation levels (all groups) ([10]; 7 days after final OVA challenge): statistically indistinguishable
- BAL cells [11, 17]: no effect
- PAS staining [11, 17]: no effect
- lung tissue inflammation [11, 17]: no effect
- PAS+ mucous-producing epithelial cells ([11]; 150 mg/kg): similarly reduced
- levels of inflammation in the lung tissue ([11]; 150 mg/kg): similarly reduced
- BAL T cells [11, 18]: dramatic reduction
- BAL eosinophils [11, 18]: dramatic reduction
- BAL neutrophils [11, 18]: dramatic reduction
- total BAL leukocytes [11, 18]: dramatic reduction
- OVA-induced airway hyperresponsiveness ([11]; 150 mg/kg, methacholine): complete protection
- OVA-specific IgE in serum [11, 19]: unchanged
- total IgE in serum [11, 19]: unchanged
- systemic effects ([11]; mouse, in vivo): did not observe any systemic effects
- increased potency compared to 20 other methyltransferases [12]: > 1000 fold
- growth of tumours [13]: suppress the growth of tumours
- number of cells recovered in the culture compared to vehicle control [14]: dose-dependent effect

Compound: CCN(c1cc(-c2ccc(CN3CCOCC3)cc2)cc(C(=O)NCc2c(C)cc(C)[nH]c2=O)c1C)C1CCOCC1 [Tazemetostat]
- oral bioavailability [1]: orally bioavailable

Compound: CCCc1cc(C)[nH]c(=O)c1CNC(=O)c1cc(-c2ccc(N3CCN(C(C)C)CC3)nc2)cc2c1cnn2C(C)C [UNC 1999]
- growth of MLL-rearranged leukemia [15]: inhibit growth
